Literature values, collected in patent publication US6586473B1, “Topical drug delivery composition and method” (Medicis Pharmaceutical Corporation, priority 1989, dated 2003).

Test system: photoaged skin

dermatitis as a result of treatment (0.1% tretinoin cream, topical): most patients experience dermatitis
SMILES: CC1=C(/C=C/C(C)=C/C=C/C(C)=C/C(=O)O)C(C)(C)CCC1 [tretinoin, all trans-retinoic acid]
effects of photoaging (wrinkling, sallowness, roughness, mottled pigmentation) (0.1% cream daily for sixteen weeks): can improve the effects of photoaging
duration of initial dermatitis (xerosis, peeling, subjective irritation) (0.1% tretinoin cream, topical): two weeks to three months
